# Test system: HVA calcium channel
# Type: cell-based, rat
structure (smiles),measurement,setting,value
COC(=O)C1=C(C)NC(C)=C(C(=O)OC)C1c1ccccc1[N+](=O)[O-] [Nifedipine],current after loading,,−734.31 pA
same,current before loading,,−1471.35 pA
same,inhibition rate,10 µM,50.09%

# Reference: patent US10179802B2 (priority 2014, dated 2019)
